Data as given in PubChem BioAssay AID192 (DTP/NCI, 2004).
Values joined by “and” are separate entries in the source; they are usually repeats but may differ in a detail not shown here. Equal values may be shown once. Toxic doses and inconclusive results are not listed.

System: BDF1 mice, B16 melanoma ip, median survival T/C
Experiment: NCI In Vivo Anticancer Drug Screen. Data for tumor model B16 Melanoma (intraperitoneal) in B6D2F1 (BDF1) mice
Conditions: endpoint: median survival time, higher = longer survival
Summary of the method: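 Compounds were tested in mice carrying transplantable tumors. Survival or tumor size was recorded, and each value is the treated-group measurement (T) divided by that of the vehicle-treated control group (C).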

[1] = dose: 6.25 mg/kg/injection, schedule: Q01DX009 (ip), vehicle: saline with Tween-80
[2] = dose: 12.5 mg/kg/injection, schedule: Q01DX009 (ip), vehicle: saline with Tween-80
[3] = dose: 25.0 mg/kg/injection, schedule: Q01DX009 (ip), vehicle: saline with Tween-80
[4] = dose: 50.0 mg/kg/injection, schedule: Q01DX009 (ip), vehicle: saline with Tween-80
[5] = dose: 50.0 mg/kg/injection, schedule: Q01DX009 (ip), vehicle: saline
[6] = dose: 100.0 mg/kg/injection, schedule: Q01DX009 (ip), vehicle: Klucel (hydroxypropylcellulose) (HPC)
[7] = dose: 100.0 mg/kg/injection, schedule: Q01DX009 (ip), vehicle: saline with Tween-80
[8] = dose: 200.0 mg/kg/injection, schedule: Q01DX009 (ip), vehicle: Klucel (hydroxypropylcellulose) (HPC)
[9] = dose: 200.0 mg/kg/injection, schedule: Q01DX009 (ip), vehicle: saline with Tween-80
[10] = dose: 400.0 mg/kg/injection, schedule: Q01DX009 (ip), vehicle: Klucel (hydroxypropylcellulose) (HPC)
[11] = dose: 25.0 mg/kg/injection, schedule: Q01DX009 (ip), vehicle: Klucel (hydroxypropylcellulose) (HPC)
[12] = dose: 50.0 mg/kg/injection, schedule: Q01DX009 (ip), vehicle: Klucel (hydroxypropylcellulose) (HPC)
[13] = dose: 6.25 mg/kg/injection, schedule: Q01DX009 (ip), vehicle: Klucel (hydroxypropylcellulose) (HPC)
[14] = dose: 12.5 mg/kg/injection, schedule: Q01DX009 (ip), vehicle: Klucel (hydroxypropylcellulose) (HPC)

CS(=O)(=O)OCCCNCCCOS(C)(=O)=O
T/C (dose: 1.25 mg/kg/injection, schedule: Q01DX009 (ip), vehicle: saline): 103 % of control
T/C (dose: 2.5 mg/kg/injection, schedule: Q01DX009 (ip), vehicle: saline): 110 % of control
T/C (dose: 5.0 mg/kg/injection, schedule: Q01DX009 (ip), vehicle: saline): 123 % of control
T/C (dose: 10.0 mg/kg/injection, schedule: Q01DX009 (ip), vehicle: saline): 159 % of control
T/C (dose: 20.0 mg/kg/injection, schedule: Q01DX009 (ip), vehicle: saline): 161 % of control and 175 % of control and 202 % of control
T/C (dose: 30.0 mg/kg/injection, schedule: Q01DX009 (ip), vehicle: saline): 189 % of control
T/C (dose: 40.0 mg/kg/injection, schedule: Q01DX009 (ip), vehicle: saline): 201 % of control and 215 % of control and 271 % of control
T/C (dose: 60.0 mg/kg/injection, schedule: Q01DX009 (ip), vehicle: saline): 228 % of control

CO[C@@H](C=O)O[C@@H](C=O)CO
T/C [1]: 100 % of control
T/C [2]: 108 % of control
T/C (dose: 12.5 mg/kg/injection, schedule: Q04DX003 (ip), vehicle: saline with Tween-80): 96 % of control
T/C [3]: 103 % of control
T/C (dose: 25.0 mg/kg/injection, schedule: Q01DX009 (ip), vehicle: saline): 107 % of control
T/C (dose: 25.0 mg/kg/injection, schedule: Q04DX003 (ip), vehicle: saline with Tween-80): 108 % of control
T/C [4]: 124 % of control
T/C [5]: 100 % of control
T/C (dose: 50.0 mg/kg/injection, schedule: Q04DX003 (ip), vehicle: saline with Tween-80): 102 % of control
T/C (dose: 50.0 mg/kg/injection, schedule: Q04DX003 (ip), vehicle: saline): 104 % of control
T/C (dose: 100.0 mg/kg/injection, schedule: Q04DX003 (ip), vehicle: saline with Tween-80): 100 % of control

COc1ccccc1NC(=O)Nc1ccc(Nc2ccccc2)cc1
T/C (dose: 100.0 mg/kg/injection, schedule: Q01DX009 (ip), vehicle: gum acacia): 109 % of control
T/C (dose: 200.0 mg/kg/injection, schedule: Q01DX009 (ip), vehicle: gum acacia): 97 % of control

CCCCn1ccnc1C
T/C (dose: 6.25 mg/kg/injection, schedule: Q01DX009 (ip), vehicle: water): 106 % of control
T/C (dose: 12.5 mg/kg/injection, schedule: Q01DX009 (ip), vehicle: water): 91 % of control
T/C (dose: 25.0 mg/kg/injection, schedule: Q01DX009 (ip), vehicle: water): 101 % of control
T/C (dose: 50.0 mg/kg/injection, schedule: Q01DX009 (ip), vehicle: water): 102 % of control

CCCCCCCCNc1cc2c3c(c1)CCCN3CCC2
T/C (dose: 0.75 mg/kg/injection, schedule: Q01DX009 (ip), vehicle: Klucel (hydroxypropylcellulose) (HPC)): 88 % of control
T/C (dose: 1.5 mg/kg/injection, schedule: Q01DX009 (ip), vehicle: Klucel (hydroxypropylcellulose) (HPC)): 97 % of control
T/C (dose: 6.0 mg/kg/injection, schedule: Q01DX009 (ip), vehicle: Klucel (hydroxypropylcellulose) (HPC)): 90 % of control

Nc1n[nH]c(N)n1
T/C [5]: 99 % of control and 100 % of control
T/C [6]: 100 % of control (2×) and 108 % of control
T/C (dose: 100.0 mg/kg/injection, schedule: Q01DX009 (ip), vehicle: saline sonified): 90 % of control
T/C [7]: 95 % of control and 97 % of control and 120 % of control
T/C [8]: 94 % of control and 102 % of control (2×)
T/C (dose: 200.0 mg/kg/injection, schedule: Q01DX009 (ip), vehicle: saline sonified): 97 % of control and 100 % of control
T/C [9]: 100 % of control and 107 % of control
T/C [10]: 92 % of control and 108 % of control and 110 % of control
T/C (dose: 400.0 mg/kg/injection, schedule: Q01DX009 (ip), vehicle: saline sonified): 95 % of control and 97 % of control
T/C (dose: 800.0 mg/kg/injection, schedule: Q01DX009 (ip), vehicle: Klucel (hydroxypropylcellulose) (HPC)): 86 % of control and 107 % of control and 111 % of control
T/C (dose: 800.0 mg/kg/injection, schedule: Q01DX009 (ip), vehicle: saline sonified): 92 % of control and 100 % of control
T/C (dose: 1600.0 mg/kg/injection, schedule: Q01DX009 (ip), vehicle: saline with Tween-80): 93 % of control
T/C (dose: 3200.0 mg/kg/injection, schedule: Q01DX009 (ip), vehicle: saline with Tween-80): 97 % of control

CNC(=O)Nc1cccc(C(F)(F)F)c1
T/C [11]: 99 % of control
T/C [12]: 100 % of control
T/C [6]: 90 % of control and 112 % of control

NC(CS/C(Cl)=C/Cl)C(=O)O (configuration not stated)
T/C (dose: 12.0 mg/kg/injection, schedule: Q01DX009 (ip), vehicle: other): 102 % of control
T/C (dose: 18.0 mg/kg/injection, schedule: Q01DX009 (ip), vehicle: other): 90 % of control
T/C (dose: 27.0 mg/kg/injection, schedule: Q01DX009 (ip), vehicle: other): 90 % of control

O=C1C=C(C2OC(CO)C(O)C2O)C(=O)N1 (configuration not stated)
T/C [13]: 107 % of control
T/C [14]: 99 % of control and 102 % of control

CCCC(=O)OCC1OC(n2cnc3c(=S)nc(N)[nH]c32)C(OC(=O)CCC)C1OC(=O)CCC (configuration not stated)
T/C (dose: 0.78 mg/kg/injection, schedule: Q01DX009 (ip), vehicle: Klucel (hydroxypropylcellulose) (HPC)): 106 % of control
T/C (dose: 1.56 mg/kg/injection, schedule: Q01DX009 (ip), vehicle: Klucel (hydroxypropylcellulose) (HPC)): 112 % of control
T/C (dose: 3.12 mg/kg/injection, schedule: Q01DX009 (ip), vehicle: Klucel (hydroxypropylcellulose) (HPC)): 113 % of control
T/C [13]: 103 % of control and 106 % of control
T/C [14]: 87 % of control

CN(C)N=Nc1cn(C)c(=O)n(C)c1=O
T/C (dose: 12.5 mg/kg/injection, schedule: Q04DX003 (ip), vehicle: Klucel (hydroxypropylcellulose) (HPC)): 100 % of control
T/C (dose: 25.0 mg/kg/injection, schedule: Q04DX003 (ip), vehicle: Klucel (hydroxypropylcellulose) (HPC)): 118 % of control
T/C (dose: 50.0 mg/kg/injection, schedule: Q04DX003 (ip), vehicle: Klucel (hydroxypropylcellulose) (HPC)): 103 % of control

C1CC[N-]CC1.C1CC[N-]CC1.C1CC[N-]CC1.[Cl][Rh]([Cl])[Cl]
T/C (dose: 2.0 mg/kg/injection, schedule: Q01DX009 (ip), vehicle: saline): 93 % of control
T/C (dose: 4.0 mg/kg/injection, schedule: Q01DX009 (ip), vehicle: saline): 99 % of control
T/C (dose: 6.25 mg/kg/injection, schedule: Q01DX009 (ip), vehicle: saline): 109 % of control
T/C (dose: 6.25 mg/kg/injection, schedule: Q01DX009 (ip), vehicle: suspension in saline): 103 % of control
T/C (dose: 8.0 mg/kg/injection, schedule: Q01DX009 (ip), vehicle: saline): 103 % of control
T/C [2]: 98 % of control
T/C (dose: 12.5 mg/kg/injection, schedule: Q01DX009 (ip), vehicle: suspension in saline): 103 % of control
T/C (dose: 16.0 mg/kg/injection, schedule: Q01DX009 (ip), vehicle: saline): 104 % of control
T/C [3]: 87 % of control
T/C (dose: 25.0 mg/kg/injection, schedule: Q01DX009 (ip), vehicle: suspension in saline): 110 % of control
T/C (dose: 32.0 mg/kg/injection, schedule: Q01DX009 (ip), vehicle: saline): 121 % of control
T/C [4]: 93 % of control
T/C (dose: 50.0 mg/kg/injection, schedule: Q01DX009 (ip), vehicle: suspension in saline): 110 % of control
T/C [7]: 94 % of control
T/C (dose: 100.0 mg/kg/injection, schedule: Q01DX009 (ip), vehicle: suspension in saline): 115 % of control
T/C [9]: 100 % of control
T/C (dose: 200.0 mg/kg/injection, schedule: Q01DX009 (ip), vehicle: suspension in saline): 112 % of control

CCOP(=O)(O)CC(=O)NC(CC(=O)O)C(=O)O (configuration not stated)
T/C [14]: 97 % of control
T/C [11]: 101 % of control
T/C [12]: 92 % of control
T/C [6]: 92 % of control
T/C [8]: 97 % of control
T/C [10]: 94 % of control

FC(F)(F)c1ccc2nc(CI)c(CI)nc2c1
T/C [13]: 110 % of control
T/C [14]: 93 % of control
T/C [11]: 96 % of control
T/C [12]: 93 % of control

CN(C)CCOc1ccc2c(c1)C/C(=C/c1ncc([N+](=O)[O-])n1C)C2=O
T/C [1]: 109 % of control
T/C [2]: 100 % of control
T/C [3]: 96 % of control
T/C [4]: 99 % of control
T/C [7]: 109 % of control

O=C(/C=C/C(=O)Oc1c(Cl)cc(Cl)cc1Cl)Oc1c(Cl)cc(Cl)cc1Cl
T/C (dose: 100.0 mg/kg/injection, schedule: Q04DX003 (ip), vehicle: Klucel (hydroxypropylcellulose) (HPC)): 95 % of control
T/C (dose: 200.0 mg/kg/injection, schedule: Q04DX003 (ip), vehicle: Klucel (hydroxypropylcellulose) (HPC)): 92 % of control
T/C (dose: 400.0 mg/kg/injection, schedule: Q04DX003 (ip), vehicle: Klucel (hydroxypropylcellulose) (HPC)): 95 % of control
